A value given as a limit tells only on which side of the number the result lay.

For test [1], the target named is Human recombinant Acetyl-CoA Carboxylase 2 (ACC2) (Homo sapiens, UniProt O00763). In words: Assay Y: ACC2 inhibition, inorganic phosphate (Malachite Green). The test is classed as biochemical. The conditions noted are these: Assay Y: room temperature, 3 hr, 15 min preincubation. Here is the method:
(§1) Preincubation of 6 μL enzyme together with 0.3 μL compound for 15 min was done before the reaction was initiated by the addition of 4 μL substrate. […] After 3 hr the reaction was stopped by addition of 60 μL of water followed by 30 μL Malachite Green solution. The Malachite Green solution was prepared by mixing 16.4 mL ammonium molybdate solution (7.5%), 1.64 mL Tween (11%) with 82 mL Malachite Green/H2SO4-solution (0.7 g Malachite Green to 1000 mL of 10% (v/v) H2SO4). Plates were left for 10 min at room temperature before reading the absorbance at 670 nm. All compounds were tested in triplicate at 10 different concentrations. Control compound (0, 50 and 100% effect) was included on each plate. […] An IC50 value was derived by non-linear regression curve fitting using the following equation: […]))) where A is the non-specific binding, B is the total binding, C is the IC50 and D is the slope. Saturation binding Kd and Bmax were derived using the equation y=((B1 max*x)/(Kd+x)).

For test [2], the target named is Human recombinant Acetyl-CoA Carboxylase 1 (ACC1) (Homo sapiens, UniProt Q13085). In words: Assay Y: ACC1 inhibition, inorganic phosphate (Malachite Green). The conditions noted are these: Assay Y: room temperature, 3 hr, 15 min preincubation. The test is classed as biochemical. Here is the method:
as §1

Chain of Human recombinant Acetyl-CoA Carboxylase 2 (ACC2) (O00763 whole entry): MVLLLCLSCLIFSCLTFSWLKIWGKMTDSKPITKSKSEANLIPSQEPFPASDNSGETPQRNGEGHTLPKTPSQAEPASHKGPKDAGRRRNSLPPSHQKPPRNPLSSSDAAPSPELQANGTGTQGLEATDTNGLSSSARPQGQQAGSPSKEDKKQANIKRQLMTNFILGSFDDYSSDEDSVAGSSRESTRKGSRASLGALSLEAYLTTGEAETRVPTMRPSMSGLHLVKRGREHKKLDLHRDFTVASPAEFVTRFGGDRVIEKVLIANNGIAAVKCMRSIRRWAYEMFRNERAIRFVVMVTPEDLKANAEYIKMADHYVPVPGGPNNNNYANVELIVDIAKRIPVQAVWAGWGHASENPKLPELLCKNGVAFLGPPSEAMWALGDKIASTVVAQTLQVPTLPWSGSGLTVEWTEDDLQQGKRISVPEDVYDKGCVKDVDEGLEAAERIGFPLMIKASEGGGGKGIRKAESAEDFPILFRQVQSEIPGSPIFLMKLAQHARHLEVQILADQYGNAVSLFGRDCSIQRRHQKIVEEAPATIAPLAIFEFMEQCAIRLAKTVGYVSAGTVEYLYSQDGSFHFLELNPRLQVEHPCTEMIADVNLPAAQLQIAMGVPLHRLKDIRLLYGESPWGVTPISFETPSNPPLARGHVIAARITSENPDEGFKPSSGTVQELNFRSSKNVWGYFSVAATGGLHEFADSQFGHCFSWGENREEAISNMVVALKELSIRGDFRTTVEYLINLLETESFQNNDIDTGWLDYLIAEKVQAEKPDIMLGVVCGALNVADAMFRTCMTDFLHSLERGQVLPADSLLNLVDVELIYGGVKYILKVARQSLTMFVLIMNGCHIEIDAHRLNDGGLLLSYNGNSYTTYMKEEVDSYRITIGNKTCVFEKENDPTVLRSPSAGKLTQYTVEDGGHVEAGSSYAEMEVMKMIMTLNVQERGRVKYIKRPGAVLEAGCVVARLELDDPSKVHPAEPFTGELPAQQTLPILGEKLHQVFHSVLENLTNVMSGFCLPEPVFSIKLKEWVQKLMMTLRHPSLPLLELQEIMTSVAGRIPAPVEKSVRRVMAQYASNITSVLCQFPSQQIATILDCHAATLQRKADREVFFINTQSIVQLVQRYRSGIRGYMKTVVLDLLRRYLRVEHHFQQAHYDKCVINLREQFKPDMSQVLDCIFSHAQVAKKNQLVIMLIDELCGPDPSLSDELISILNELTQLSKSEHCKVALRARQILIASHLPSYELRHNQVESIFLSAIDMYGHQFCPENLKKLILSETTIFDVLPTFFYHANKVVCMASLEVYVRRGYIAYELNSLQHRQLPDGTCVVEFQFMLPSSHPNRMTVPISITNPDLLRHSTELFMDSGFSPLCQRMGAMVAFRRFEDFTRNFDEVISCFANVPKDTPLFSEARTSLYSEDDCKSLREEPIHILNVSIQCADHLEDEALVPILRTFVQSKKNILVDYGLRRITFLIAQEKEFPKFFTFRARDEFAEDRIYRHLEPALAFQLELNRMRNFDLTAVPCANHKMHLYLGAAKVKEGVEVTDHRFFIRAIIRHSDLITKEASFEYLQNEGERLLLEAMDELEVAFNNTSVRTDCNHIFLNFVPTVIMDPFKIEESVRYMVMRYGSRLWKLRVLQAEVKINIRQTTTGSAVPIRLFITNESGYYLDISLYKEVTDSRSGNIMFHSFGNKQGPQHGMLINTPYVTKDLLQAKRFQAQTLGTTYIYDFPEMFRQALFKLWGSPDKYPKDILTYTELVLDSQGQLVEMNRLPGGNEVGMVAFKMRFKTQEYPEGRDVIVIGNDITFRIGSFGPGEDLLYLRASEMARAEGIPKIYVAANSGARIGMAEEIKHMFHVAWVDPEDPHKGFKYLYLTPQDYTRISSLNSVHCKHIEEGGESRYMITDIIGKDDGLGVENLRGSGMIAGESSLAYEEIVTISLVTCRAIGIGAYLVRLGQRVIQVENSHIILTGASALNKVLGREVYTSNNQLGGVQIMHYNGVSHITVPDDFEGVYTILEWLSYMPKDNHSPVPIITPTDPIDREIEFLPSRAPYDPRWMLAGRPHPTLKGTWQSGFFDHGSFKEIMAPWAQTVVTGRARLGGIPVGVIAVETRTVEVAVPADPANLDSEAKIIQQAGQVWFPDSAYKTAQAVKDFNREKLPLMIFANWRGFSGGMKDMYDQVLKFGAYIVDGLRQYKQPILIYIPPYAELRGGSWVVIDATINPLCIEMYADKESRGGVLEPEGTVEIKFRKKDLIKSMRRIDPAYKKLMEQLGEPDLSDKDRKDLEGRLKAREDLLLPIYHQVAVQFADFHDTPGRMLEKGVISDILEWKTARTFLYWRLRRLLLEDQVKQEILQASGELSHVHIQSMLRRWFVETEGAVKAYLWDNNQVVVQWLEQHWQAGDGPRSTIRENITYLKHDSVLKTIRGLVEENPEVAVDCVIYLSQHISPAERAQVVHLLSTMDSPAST

`Cc1ccc(-c2cc(C(=O)NC[C@H]3CC[C@H](CNC(=O)OC(C)(C)C)CC3)c3ccccc3n2)cc1` [Example 20, tert-Butyl ({trans-4-[({[2-(4-methylphenyl)quinolin-4-yl]carbonyl}amino)methyl]-cyclohexyl}methyl)carbamate]: the values for the IC50 in test [1] and in test [2] were 0.62 µM and 1.29 µM, respectively.

For `CC(C)(C)OC(=O)NC[C@H]1CC[C@H](CNC(=O)c2cc(-c3ccc(Cl)cc3)nc3ccccc23)CC1` [Example 21, tert-Butyl ({trans-4-[({[2-(4-chlorophenyl)quinolin-4-yl]carbonyl}amino)methyl]cyclo-hexyl}methyl)carbamate], the values for the half-maximal inhibitory concentration (IC50) in test [1] and in test [2] were 0.97 µM and 1.49 µM, respectively.

Consider `COc1cccc(-c2cc(C(=O)NC[C@H]3CC[C@H](CNC(=O)OC(C)(C)C)CC3)c3ccccc3n2)c1` [Example 22, tert-Butyl ({trans-4-[({[2-(3-methoxyphenyl)quinolin-4-yl]carbonyl}amino)-methyl]cyclohexyl}methyl)carbamate], for which the IC50 (commonly the concentration needed to halve the response being measured) was 0.31 µM in test [1] and 1.01 µM in test [2].

With `COc1ccccc1-c1cc(C(=O)NC[C@H]2CC[C@H](CNC(=O)OC(C)(C)C)CC2)c2ccccc2n1` [Example 23, tert-Butyl ({trans-4-[({[2-(2-methoxyphenyl)quinolin-4-yl]carbonyl}amino)methyl]-cyclohexyl}methyl)carbamate], the IC50 in test [1] was 0.46 µM; in test [2], 3.27 µM.

For `CSc1ccc(-c2cc(C(=O)NC[C@H]3CC[C@H](CNC(=O)OC(C)(C)C)CC3)c3ccccc3n2)cc1` [Example 24, tert-Butyl [(trans-4-{[({2-[4-(methylthio)phenyl]quinolin-4-yl}carbonyl)amino]-methyl}cyclohexyl)methyl]carbamate], the concentration for half-maximal inhibition (IC50) was 0.49 µM in test [1] and 1.35 µM in test [2].

On to `Cc1nc(C)c(-c2cc(C(=O)NC[C@H]3CC[C@H](CNC(=O)OC(C)(C)C)CC3)c3ccccc3n2)s1` [Example 25, tert-Butyl ({trans-4-[({[2-(2,4-dimethyl-1,3-thiazol-5-yl)quinolin-4-yl]carbonyl}amino)-methyl]cyclohexyl}methyl)carbamate], for which the IC50 in test [1] worked out at 0.14 µM; in test [2] it was 1.68 µM.

Regarding `CCOC(=O)NC[C@H]1CC[C@H](CNC(=O)c2cc(-c3cnccn3)nc3ccccc23)CC1` [Example 26, Ethyl {[trans-4-({[(2-pyrazin-2-ylquinolin-4-yl)carbonyl]amino}methyl)cyclohexyl]-methyl}carbamate], the 50% inhibitory concentration (IC50) is 4.03 µM in test [1] and greater than 20 µM in test [2].

Turning to `CCOC(=O)NC[C@H]1CC[C@H](CNC(=O)c2cc(-c3cccc(OC)c3)nc3ccccc23)CC1` [Example 27, Ethyl ({trans-4-[({[2-(3-methoxyphenyl)quinolin-4-yl]carbonyl}amino)methyl]cyclo-hexyl}methyl)carbamate], the IC50 in test [1] is 1.18 µM; in test [2] it was 3.59 µM.

As for `CCOC(=O)NC[C@H]1CC[C@H](CNC(=O)c2cc(-c3ccc(C)cc3)nc3ccccc23)CC1` [Example 28, Ethyl ({trans-4-[({[2-(4-methylphenyl)quinolin-4-yl]carbonyl}amino)methyl]cyclo-hexyl}methyl)carbamate], the IC50 amounted to 1.17 µM in test [1] and 6 µM in test [2].

Take `CCOC(=O)NC[C@H]1CC[C@H](CNC(=O)c2cc(-c3ccc(SC)cc3)nc3ccccc23)CC1` [Example 29, Ethyl [(trans-4-{[({2-[4-(methylthio)phenyl]quinolin-4-yl}carbonyl)amino]methyl}-cyclohexyl)methyl]carbamate]: the IC50 in test [1] amounted to 1.26 µM; in test [2], 4.04 µM.

In the case of `CCOC(=O)NC[C@H]1CC[C@H](CNC(=O)c2cc(-c3ccc(OCC)cc3)nc3ccccc23)CC1` [Example 30, Ethyl ({trans-4-[({[2-(4-ethoxyphenyl)quinolin-4-yl]carbonyl}amino)methyl]-cyclohexyl}methyl)carbamate], the IC50 is 1.29 µM in test [1] and greater than 20 µM in test [2].

For the molecule `CCOC(=O)NC[C@H]1CC[C@H](CNC(=O)c2cc(-c3ccccc3OC)nc3ccccc23)CC1` [Example 31, Ethyl ({trans-4-[({[2-(2-methoxyphenyl)quinolin-4-yl]carbonyl}amino)methyl]-cyclohexyl}methyl)carbamate], the values for the IC50 in test [1] and in test [2] were 3.56 µM and greater than 20 µM, respectively.

In the case of `CCOC(=O)NC[C@H]1CC[C@H](CNC(=O)c2cc(-c3ccc(Cl)cc3)nc3ccccc23)CC1` [Example 32, Ethyl ({trans-4-[({[2-(4-chlorophenyl)quinolin-4-yl]carbonyl}amino)methyl]cyclo-hexyl}methyl)carbamate], the figures for the IC50 in test [1] and in test [2] were 1.73 µM and greater than 20 µM, respectively.

As for `CC(C)(C)OC(=O)NC[C@H]1CC[C@H](CNC(=O)c2cc(-c3cncnc3)nc3ccccc23)CC1` [Example 33, tert-Butyl {[trans-4-({[(2-pyrimidin-5-ylquinolin-4-yl)carbonyl]amino}methyl)cyclo-hexyl]methyl}carbamate], the values for the IC50 in test [1] and in test [2] were 1.14 µM and 3.51 µM, respectively.

For `CC(C)(C)OC(=O)NC[C@H]1CC[C@H](CNC(=O)c2cc(-c3ccc(C#N)cc3)nc3ccccc23)CC1` [Example 34, tert-Butyl ({trans-4-[({[2-(4-cyanophenyl)quinolin-4-yl]carbonyl}amino)methyl]cyclo-hexyl}methyl)carbamate], the IC50 in test [1] was determined as 0.22 µM; in test [2] it was 1.17 µM.

For `CC(C)(C)OC(=O)NC[C@H]1CC[C@H](CNC(=O)c2cc(Cl)nc3ccccc23)CC1` [Example 35, tert-butyl {[trans-4-({[(2-chloroquinolin-4-yl)carbonyl]amino}methyl)cyclohexyl]-methyl}carbamate], the IC50 in test [1] was determined as 3.84 µM; in test [2], 9.96 µM.

For `COc1cc(C(=O)NC[C@H]2CC[C@H](CNC(=O)OC(C)(C)C)CC2)cc(-c2ccc(CN)cc2)n1` [Example 36, tert-Butyl ({trans-4-[({2-[4-(aminomethyl)phenyl]-6-methoxyisonicotinoyl}-amino)methyl]cyclohexyl}methyl)carbamate], the IC50 in test [1] worked out at 1.59 µM; in test [2], 3.95 µM.

Turning to `CC(C)(C)OC(=O)NC[C@H]1CC[C@H](CNC(=O)c2cc(-c3ccc(CN)cc3)ncc2Cl)CC1` [Example 37, tert-Butyl ({trans-4-[({2-[4-(aminomethyl)phenyl]-5-chloroisonicotinoyl}amino)-methyl]cyclohexyl}methyl)carbamate], the figures for the half-maximal inhibitory concentration (IC50) in test [1] and in test [2] were 0.47 µM and 3.69 µM, respectively.

`Cc1cc(C(=O)NC[C@H]2CC[C@H](CNC(=O)OC(C)(C)C)CC2)cc(-c2ccc(CN)cc2)n1` [Example 38, tert-Butyl ({trans-4-[({2-[4-(aminomethyl)phenyl]-6-methylisonicotinoyl}amino)-methyl]cyclohexyl}methyl)carbamate]: the 50% inhibitory concentration (IC50) in test [1] turned out to be 4.05 µM; in test [2] it was 5.44 µM.

As for `CC(C)(C)OC(=O)NC[C@H]1CC[C@H](CNC(=O)c2cc(-c3cccc(CN)c3)nc3ccccc23)CC1` [Example 39, tert-Butyl [(trans-4-{[({2-[3-(aminomethyl)phenyl]quinolin-4-yl}carbonyl)amino]-methyl}cyclohexyl)methyl]carbamate], the IC50 in test [1] stood at 0.02 µM; in test [2] it was 0.22 µM.

For `CC(C)(C)OC(=O)NC[C@H]1CC[C@H](CNC(=O)c2cc(-c3cccc(CC(=O)O)c3)nc3ccccc23)CC1` [Example 40, [3-(4-{[(trans-4-{[(tert-Butoxycarbonyl)amino]methyl}cyclohexyl)methyl]-carbamoyl}quinolin-2-yl)phenyl]acetic Acid], the values for the IC50 in test [1] and in test [2] were 1 µM and 8.64 µM, respectively.

In the case of `CC(C)(C)OC(=O)NC[C@H]1CC[C@H](CNC(=O)c2ccnc(-c3ccccc3)c2)CC1` [Example 41, tert-Butyl [(trans-4-{[(2-phenylisonicotinoyl)amino]methyl}cyclohexyl)methyl]-carbamate], the IC50 is 4.54 µM in test [1] and 6.63 µM in test [2].

As to `COc1ccc(-c2cc(C(=O)NC[C@H]3CC[C@H](CNC(=O)OC(C)(C)C)CC3)ccn2)cc1` [Example 42, tert-Butyl {[trans-4-({[2-(4-methoxyphenyl)isonicotinoyl]amino}methyl)cyclo-hexyl]methyl}carbamate], the half-maximal inhibitory concentration (IC50) in test [1] was 6.14 µM; in test [2], 12.8 µM.

Take `Cc1cc(C(=O)NC[C@H]2CC[C@H](CNC(=O)OC(C)(C)C)CC2)cc(-c2ccccc2)n1` [Example 43, tert-Butyl [(trans-4-{[(2-methyl-6-phenylisonicotinoyl)amino]methyl}cyclohexyl)-methyl]carbamate]: the IC50 in test [1] is 5.82 µM; in test [2], 8.31 µM.

In the case of `CC(C)(C)OC(=O)NC[C@H]1CC[C@H](CNC(=O)c2cncc(-c3ccccc3)c2)CC1` [Example 44, tert-Butyl {[trans-4-({[(5-phenylpyridin-3-yl)carbonyl]amino}methyl)cyclohexyl]-methyl}carbamate], the IC50 worked out at 9.71 µM in test [1] and 13 µM in test [2].

Take `CC(C)(C)OC(=O)NC[C@H]1CC[C@H](CNC(=O)c2ccnc(-c3cc4ccccc4s3)c2)CC1` [Example 45, tert-Butyl {[trans-4-({[2-(1-benzothiophen-2-yl)isonicotinoyl]amino}methyl)cyclo-hexyl]methyl}carbamate]: the IC50 in test [1] was 4.35 µM; in test [2], greater than 20 µM.

For the origin of these results see patent US20090306133A1, “New Acetyl Coenzyme A Carboxylase (ACC) Inhibitors And Uses In Treatments Of Obesity And Diabetes Mellitus - 087” (ASTRAZENECA AB, priority 2007, published 2009).
